Laboratory results taken from patent US20140127192A1, “METHOD FOR TREATING OSTEOPOROSIS” (AMGEN INC, priority 2011, published 2014).

How the values were obtained:
[1] = tested on: postmenopausal women with low BMD at lumbar vertebrae, total hip or femoral neck; assay: Randomized multicenter study, BMD measured by DXA in postmenopausal women with low BMD; format: in vivo, human; conditions: open label active control arm; for Femoral Neck BMD % Change from Baseline, Mean / Lumbar Vertebrae BMD % Change from Baseline, Mean / Total Hip BMD % Change from Baseline, Mean: 12 months; for mean percent change of lumbar vertebrae BMD from pretreatment baseline: month 6; for mean percent change of distal ⅓ radius BMD from pretreatment baseline: month 12
Experimental: This example describes in vivo studies wherein an anti-sclerostin antibody improved bone mineral density in postmenopausal women.
A multicenter, international, randomized, parallel group study in postmenopausal women with low BMD at lumbar vertebrae, total hip or femoral neck was conducted. 419 subjects were randomized to receive one of five regimens of an anti-sclerostin antibody, placebo, open label alendronate (ALN), or open label teriparatide (TPTD) for 12 months. The placebo group was further randomized to match the schedules corresponding to the five anti-sclerostin antibody regimens. The subject distribution was as follows: 52 subjects to the placebo arm, 51 subjects to ALN arm, 55 subjects to TPTD arm, and 51, 54, 51, 53, and 52 subjects to anti-sclerostin antibody 70 mg QM, 140 mg Q3M, 140 mg QM, 210 mg Q3M, and 210 mg QM arms, respectively. 383 subjects completed the 12 months of study. Among all subjects enrolled in the study, the mean age was 66.8 years old, 86.4% of subjects were Caucasian, and the mean pretreatment baseline lumbar vertebrae and total hip BMD T-scores were −2.29 and −1.53, respectively. The primary analysis occurred after all subjects had the opportunity to complete the month 12 study visit. BMD was measured by DXA. Overall, the proportions of patients reporting adverse events were balanced between placebo arm and anti-sclerostin antibody arms.

[2] = tested on: bone resorption marker (CTX) and bone formation markers (P1NP, BSAP, OC); assay: Bone turnover markers in the same study (serum CTX, P1NP, BSAP, OC); format: in vivo, human; conditions: open label active control
Text: A subject's physiological response to an anti-sclerostin antibody can be gauged by monitoring bone marker levels. Bone markers are products created during the bone remodeling process and are released by bone, osteoblasts, and/or osteoclasts. Fluctuations in bone resorption and/or bone formation “marker” levels imply changes in bone remodeling/modeling. The International Osteoporosis Foundation (IOF) recommends using bone markers to monitor bone density therapies (see, e.g., Delmas et al., Osteoporos Int., Suppl. 6:S2-17 (2000), incorporated herein by reference). Markers indicative of bone resorption (or osteoclast activity) include, for example, C-telopeptide (e.g., C-terminal telopeptide of type 1 collagen (CTX) or serum cross-linked C-telopeptide), N-telopeptide (N-terminal telopeptide of type 1 collagen (NTX)), deoxypyridinoline (DPD), pyridinoline, urinary hydroxyproline, galactosyl hydroxylysine, and tartrate-resistant acid phosphatase (e.g., serum tartrate-resistant acid phosphatase isoform 5b). Bone formation/mineralization markers include, but are not limited to, bone-specific alkaline phosphatase (BSAP), peptides released from N- and C-terminal extension of type I procollagen (P1NP, PICP), and osteocalcin (OC). Several kits are commercially-available to detect and quantify markers in clinical samples, such as urine and blood.
A multicenter, international, randomized, parallel group study in postmenopausal women with low BMD at lumbar vertebrae, total hip or femoral neck was conducted. 419 subjects were randomized to receive one of five regimens of an anti-sclerostin antibody, placebo, open label alendronate (ALN), or open label teriparatide (TPTD) for 12 months. The placebo group was further randomized to match the schedules corresponding to the five anti-sclerostin antibody regimens. […] BMD was measured by DXA. […]

Compound	Femoral Neck BMD % Change from Baseline, Mean [1]	Lumbar Vertebrae BMD % Change from Baseline, Mean [1]	Total Hip BMD % Change from Baseline, Mean [1]	mean percent change of lumbar vertebrae BMD from pretreatment baseline [1]	mean percent change of distal ⅓ radius BMD from pretreatment baseline [1]	adaptive response (bone formation markers falling to approximately baseline within two to six months) [2]	bone formation markers over the course of treatment [2]
CC[C@H](C)[C@H](NC(=O)[C@H](CCC(=O)O)NC(=O)[C@H](CO)NC(=O)[C@@H](NC(=O)[C@@H](N)CO)C(C)C)C(=O)N[C@@H](CCC(N)=O)C(=O)N[C@@H](CC(C)C)C(=O)N[C@@H](CCSC)C(=O)N[C@@H](Cc1cnc[nH]1)C(=O)N[C@@H](CC(N)=O)C(=O)N[C@@H](CC(C)C)C(=O)NCC(=O)N[C@@H](CCCCN)C(=O)N[C@@H](Cc1cnc[nH]1)C(=O)N[C@@H](CC(C)C)C(=O)N[C@@H](CC(N)=O)C(=O)N[C@@H](CO)C(=O)N[C@@H](CCSC)C(=O)N[C@@H](CCC(=O)O)C(=O)N[C@@H](CCCN=C(N)N)C(=O)N[C@H](C(=O)N[C@@H](CCC(=O)O)C(=O)N[C@@H](Cc1c[nH]c2ccccc12)C(=O)N[C@@H](CC(C)C)C(=O)N[C@@H](CCCN=C(N)N)C(=O)N[C@@H](CCCCN)C(=O)N[C@@H](CCCCN)C(=O)N[C@@H](CC(C)C)C(=O)N[C@@H](CCC(N)=O)C(=O)N[C@@H](CC(=O)O)C(=O)N[C@H](C(=O)N[C@@H](Cc1cnc[nH]1)C(=O)N[C@@H](CC(N)=O)C(=O)N[C@@H](Cc1ccccc1)C(=O)O)C(C)C)C(C)C [TPTD, teriparatide]	1.1%	7.1%	1.3%	4.8%	−1.7%	not observed	remained elevated
NCCCC(O)(P(=O)(O)O)P(=O)(O)O [ALN, alendronate]	1.2%	4.1%	1.9%	2.6%	−0.3%	not observed	–
